Data taken from patent US20010047017A1, “Azole derivatives” (priority 2000, published 2001).
Converted amounts (≈) assume the structure as drawn.

How the values were obtained:
Assay in all cases: In vitro antifungal activity (IC80), broth micro-dilution
Format in all cases: cell-based
[1] = test system: Rhizopus oryzea (CFF1118); settings: 80% inhibitory concentration, YNB medium solidified with 0.2% low melting point agarose, 1-2 days at 35° C., read-out: In vitro antifungal activity (IC80) R. oryzea (CFF1118)
Procedure: (§1) In vitro antifungal activities of 1-(1H-1,2,4-triazol-1-yl)butan-2-ol derivatives of the formula (I) of the present invention were evaluated by determining the 80% inhibitory concentration (IC80), which was calculated as the lowest concentration of an antifungal to inhibit the growth of fungus to 20% turbidity compared with the drug-free control growth spectrophotometrically. The IC80 values were determined by the broth micro-dilution procedure based on NCCLS Approved Standard with the following minor modifications:
(§2) National Committee for Clinical Laboratory Standards. (1997) Reference method for broth dilution antifungal susceptibility testing for yeasts. Approved standard.
(§3) Yeast Nitrogen Base (YNB; Difco Lab.) supplemented with 1% glucose and 0.25% K2HPO4 was used as testing medium for yeast, the same medium solidified with 0.2% low melting point agarose (BRL) was used for filamentous fungi. Inoculum size was 1-3×10^4 cells/ml, and incubation was performed for 1-2 days at 35° C.
(§4) The inhibitory activity of 1-(1H-1,2,4-triazol-1-yl)butan-2-ol derivatives of the formula (I) against in vitro growth of Candida albicans, Aspergillus fumigatus, Rhizopus oryzea, and Absidia corymbifera is summarized in Table 1 comparing with 2-(2,4-difluorophenyl)-1,3-bis(1H-1,2,4-triazol-1-ylmethyl)propan-2-ol (Fluconazole; Pfizer).

[2] = test system: Candida albicans (CY1002); settings: 80% inhibitory concentration, YNB medium with 1% glucose and 0.25% K2HPO4, 1-2 days at 35° C.
Procedure: as §1, §2, §3, §4

[3] = test system: Absidia corymbifera (CF1001); settings: Lichtheimia corymbifera; 80% inhibitory concentration; YNB medium solidified with 0.2% low melting point agarose; 1-2 days at 35° C.; read-out: In vitro antifungal activity (IC80) A. cormybifera (CF1001)
Procedure: as §1, §2, §3, §4

[4] = test system: Aspergillus fumigatus (437); settings: 80% inhibitory concentration, YNB medium solidified with 0.2% low melting point agarose, 1-2 days at 35° C.
Procedure: as §1, §2, §3, §4

SMILES	IC80 [1] [µg/mL]	IC80 [2] [µg/mL]	IC80 [3] [µg/mL]	IC80 [4] [µg/mL]
C[C@@H](c1nc(-c2ccc(-c3nccs3)cc2)cs1)[C@](O)(Cn1cncn1)c1ccc(F)cc1F [Example 5, (2R,3R)-2-(2,4-Difluorophenyl)-3-{4-[4-(thiazol-2-yl)phenyl]thiazol-2-yl}-1-(1H-1,2,4-triazol-1-yl)butan-2-ol]	0.0047 (≈ 0.00948 µM)	0.0059 (≈ 0.0119 µM)	0.3 (≈ 0.605 µM)	0.35 (≈ 0.706 µM)
CCc1nc(-c2ccc(-c3csc([C@H](C)[C@](O)(Cn4cncn4)c4ccc(F)cc4F)n3)cc2)ns1 [Example 19, (2R,3R)-2-(2,4-Difluorophenyl)-3-(4-{4-[5-ethyl-(1,2,4-thiadiazol-3-yl) ]phenyl}thiazol-2-yl)-1-(1H-1,2,4-triazol-1-yl)butan-2-ol]	0.044 (≈ 0.0839 µM)	0.016 (≈ 0.0305 µM)	0.25 (≈ 0.477 µM)	0.3 (≈ 0.572 µM)
Cc1nc(-c2ccc(-c3csc([C@H](C)[C@](O)(Cn4cncn4)c4ccc(F)cc4F)n3)cc2)ns1 [Example 18, (2R,3R)-2-(2,4-Difluorophenyl)-3-(4-{4-[5-methyl-(1,2,4-thiadiazol-3-yl)]phenyl}thiazol-2-yl)-1-(1H-1,2,4-triazol-1-yl)butan-2-ol]	0.046 (≈ 0.0901 µM)	0.0031 (≈ 0.00607 µM)	0.19 (≈ 0.372 µM)	0.28 (≈ 0.548 µM)
C[C@@H](c1nc(-c2ccc(-c3csnn3)cc2)cs1)[C@](O)(Cn1cncn1)c1cc(F)ccc1F [Example 4, (2R,3R)-2-(2,5-Difluorophenyl)-3-{4-[4-(1,2,3-thiadiazol-4-yl)phenyl]thiazol-2-yl}-1-(1H-1,2,4-triazol-1-yl)butan-2-ol]	0.0028 (≈ 0.00564 µM)	0.011 (≈ 0.0222 µM)	0.017 (≈ 0.0342 µM)	0.17 (≈ 0.342 µM)
Cc1csc(-c2ccc(-c3csc([C@H](C)[C@](O)(Cn4cncn4)c4ccc(F)cc4F)n3)cc2)n1 [Example 6, (2R,3R)-2-(2,4-Difluorophenyl)-3-{4-[4-(4-methylthiazol-2-yl)phenyl]thiazol-2-yl}-1-(1H-1,2,4-triazol-1-yl)butan-2-ol]	0.095 (≈ 0.186 µM)	0.021 (≈ 0.0412 µM)	0.33 (≈ 0.648 µM)	0.67 (≈ 1.31 µM)
CCc1csc(-c2ccc(-c3csc([C@H](C)[C@](O)(Cn4cncn4)c4ccc(F)cc4F)n3)cc2)n1 [Example 7, (2R,3R)-2-(2,4-Difluorophenyl)-3-{4-[4-(4-ethylthiazol-2-yl)phenyl]thiazol-2-yl}-1-(1H-1,2,4-triazol-1-yl)butan-2-ol]	0.069 (≈ 0.132 µM)	0.024 (≈ 0.0458 µM)	0.34 (≈ 0.649 µM)	0.39 (≈ 0.745 µM)
C[C@@H](c1nc(-c2ccc(-c3csnn3)cc2)ns1)[C@](O)(Cn1cncn1)c1ccc(F)cc1F [Example 1, (2R,3R)-2-(2,4-Difluorophenyl)-3-{3-[4-(1,2,3-thiadiazol-4-yl)phenyl]-1,2,4-thiadiazol-5-yl}-1-(1H-1,2,4-triazol-1-yl)butan-2-ol]	0.0023 (≈ 0.00462 µM)	0.00093 (≈ 0.00187 µM)	0.0057 (≈ 0.0115 µM)	0.11 (≈ 0.221 µM)
CCOC(=O)c1csc(-c2ccc(-c3csc([C@H](C)[C@](O)(Cn4cncn4)c4ccc(F)cc4F)n3)cc2)n1 [Example 9, 2-(4-{2-[(1R,2R)-2-(2,4-Difluorophenyl)-2-hydroxy-1-methyl-3-(1H-1,2,4-triazol-1-yl)propyl]thiazol-4-yl}phenyl)thiazole-4-carboxylic acid ethyl ester]	0.036 (≈ 0.0634 µM)	0.022 (≈ 0.0388 µM)	0.17 (≈ 0.299 µM)	0.5 (≈ 0.881 µM)
C[C@@H](c1nc(-c2ccc(-c3csnn3)cc2)ns1)[C@](O)(Cn1cncn1)c1cc(F)ccc1F [Example 2, (2R,3R)-2-(2,5-Difluorophenyl)-3-{3-[4-(1,2,3-thiadiazol-4-yl)phenyl]-1,2,4-thiadiazol-5-yl}-1-(1H-1,2,4-triazol-1-yl)butan-2-ol]	0.011 (≈ 0.0221 µM)	0.0014 (≈ 0.00281 µM)	0.047 (≈ 0.0945 µM)	0.036 (≈ 0.0724 µM)
C[C@@H](c1nc(-c2ccc(-c3csnn3)cc2)cs1)[C@](O)(Cn1cncn1)c1ccc(F)cc1F [Example 3, (2R,3R)-2-(2,4-Difluorophenyl)-3-{4-[4-(1,2,3-thiadiazol-4-yl)phenyl]thiazol-2-yl}-1-(1H-1,2,4-triazol-1-yl)butan-2-ol]	0.0029 (≈ 0.00584 µM)	0.011 (≈ 0.0222 µM)	0.024 (≈ 0.0483 µM)	0.14 (≈ 0.282 µM)
